The values that follow are results of earlier work, collected in patent US20240001339A1, “DRYING PROCESSES FOR BIO-COMPATIBLE SPME COATINGS” (SIGMS-ALDRICH CO. LLC, priority 2020, published 2024).

Molecules are shown by their SMILES.

For data set [1] the following is noted: for conventional SPME devices.

On to `NC(=O)N1c2ccccc2C=Cc2ccccc21` [Carbamazepine], for which the Log p is given as 2.45 and the pKa was 13.9. In addition, the reference protein binding in data set [1] is 70-80%.
